For 15 compounds, MIC results are on record in patent publication US10919916B2, “Boron-containing small molecules” (Bill & Melinda Gates Foundation, priority 2016, dated 2021).

Values after ≈ are worked out from the molar mass of the structure shown. Like-named read-outs stand apart in the source and are kept apart here.

The test system of test [1] is Staphylococcus aureus, MRSA (ATCC 33591). Kind of test: Antibacterial MIC assay (microbroth dilution, CLSI). The test is classed as cell-based. As to conditions: read-out: MIC Staphylococcus aureus, MRSA (ATCC 33591). An excerpt:
(§1) All MIC testing of bacteria followed the Clinical and Laboratory Standards Institute (CLSI) guidelines for antimicrobial testing of aerobic bacteria (Methods for Dilution Antimicrobial Susceptibility Tests for Bacteria that Grow Aerobically; Approved Standard—Tenth Edition, M07-A10; Performance Standards for Antimicrobial Susceptibility Testing; Twenty-fifth Informational Supplement, M100-S25).
(§2) Briefly, the microbroth dilution MIC method was used to quantitatively measure the in vitro antibacterial activity of a compound against a given bacterial isolate. The following bacterial strains were evaluated: Staphylococcus aureus, MRSA (ATCC 33591) and Streptococcus pneumoniae (ATCC 49619). Bacteria were grown in cation-adjusted Mueller-Hinton broth, with additions as required per species growth requirements (e.g. 3% lysed horse blood for fastidious organisms such as S. pneumoniae). A direct colony suspension in saline was prepared from colonies on an overnight agar plate to achieve a turbidity equivalent to 0.5 McFarland standard, which was subsequently diluted into the assay plate to achieve 5×10^5 CFU/mL. Assays plates were prepared by 2-fold dilution of compound across the plate and included a positive growth control.

Test [2] deals with Streptococcus pneumoniae (ATCC 49619). Described as above. Format: cell-based.
Description: as §1
as §2, with “The following bacterial strains were evaluated: Staphylococcus aureus, MRSA (ATCC 33591) and Streptococcus pneumoniae (ATCC 49619).” left out

[3] abbreviates: ATCC49619, read-out: MIC Streptococcus pneumoniae (ATCC 49619).
Where [4] appears, read: microbroth dilution, cation-adjusted Mueller-Hinton broth, 35° C. for 16-20 hours.
[5] abbreviates: ATCC49619, microbroth dilution, 3% lysed horse blood, 35° C. for 16-20 hours, read-out: MIC Streptococcus pneumoniae (ATCC 49619).

As to `C=C[C@]1(C)C[C@@H](OC(=O)COc2ccc3c(c2)B(O)OC3)[C@]2(C)[C@H](C)CC[C@]3(CCC(=O)[C@H]32)[C@@H](C)[C@@H]1O` [Compound 1, (3aR,4R,5R,7S,8S,9R,9aS,12R)-8-hydroxy-4,7,9,12-tetramethyl-3-oxo-7-vinyldecahydro-4,9a-propanocyclopenta[8]annulen-5-yl 2-((1-hydroxy-1,3-dihydrobenzo[c][1,2]oxaborol-6-yl)oxy)acetate], the MIC in test [1] and in test [2] (setting [3]) was below 0.25 µg/mL each time.

Regarding `C=C[C@]1(C)C[C@@H](OC(=O)COc2ccc3c(c2F)B(O)OC3)[C@]2(C)[C@H](C)CC[C@]3(CCC(=O)[C@H]32)[C@@H](C)[C@@H]1O` [Compound 2, (3aR,4R,5R,7S,8S,9R,9aS,12R)-8-hydroxy-4,7,9,12-tetramethyl-3-oxo-7-vinyldecahydro-4,9a-propanocyclopenta[8]annulen-5-yl 2-((7-fluoro-1-hydroxy-1,3-dihydrobenzo[c][1,2]oxaborol-6-yl)oxy)acetate], the MIC in test [1] is below 0.25 µg/mL; in test [2] (setting [3]), 0.5 to 2 µg/mL (≈ 0.946 to 3.78 µM).

For `C=C[C@]1(C)C[C@@H](OC(=O)COc2cc3c(cc2F)COB3O)[C@]2(C)[C@H](C)CC[C@]3(CCC(=O)[C@H]32)[C@@H](C)[C@@H]1O` [Compound 3, (3aR,4R,5R,7S,8S,9R,9aS,12R)-8-hydroxy-4,7,9,12-tetramethyl-3-oxo-7-vinyldecahydro-4,9a-propanocyclopenta[8]annulen-5-yl 2-((5-fluoro-1-hydroxy-1,3-dihydrobenzo[c][1,2]oxaborol-6-yl)oxy)acetate], the MIC in test [1] and in test [2] (setting [3]) was below 0.25 µg/mL in each case.

In the case of `C=C[C@]1(C)C[C@@H](OC(=O)COc2cc(F)c3c(c2)B(O)OC3)[C@]2(C)[C@H](C)CC[C@]3(CCC(=O)[C@H]32)[C@@H](C)[C@@H]1O` [Compound 4, (3aR,4R,5R,7S,8S,9R,9aS,12R)-8-hydroxy-4,7,9,12-tetramethyl-3-oxo-7-vinyldecahydro-4,9a-propanocyclopenta[8]annulen-5-yl 2-((4-fluoro-1-hydroxy-1,3-dihydrobenzo[c][1,2]oxaborol-6-yl)oxy)acetate], the MIC in test [1] was below 0.25 µg/mL; in test [2] (setting [3]), 0.5 to 2 µg/mL (≈ 0.946 to 3.78 µM).

For the compound `C=C[C@]1(C)C[C@@H](OC(=O)COc2c(F)cc3c(c2F)B(O)OC3)[C@]2(C)[C@H](C)CC[C@]3(CCC(=O)[C@H]32)[C@@H](C)[C@@H]1O` [Compound 5, (3aR,4R,5R,7S,8S,9R,9aS,12R)-8-hydroxy-4,7,9,12-tetramethyl-3-oxo-7-vinyldecahydro-4,9a-propanocyclopenta[8]annulen-5-yl 2-((5,7-difluoro-1-hydroxy-1,3-dihydrobenzo[c][1,2]oxaborol-6-yl)oxy)acetate], the MIC in test [1] and in test [2] (setting [3]) was below 0.25 µg/mL throughout.

Consider `C=C[C@]1(C)C[C@@H](OC(=O)COc2ccc3c(c2Cl)B(O)OC3)[C@]2(C)[C@H](C)CC[C@]3(CCC(=O)[C@H]32)[C@@H](C)[C@@H]1O` [Compound 6, (3aR,4R,5R,7S,8S,9R,9aS,12R)-8-hydroxy-4,7,9,12-tetramethyl-3-oxo-7-vinyldecahydro-4,9a-propanocyclopenta[8]annulen-5-yl 2-((7-chloro-1-hydroxy-1,3-dihydrobenzo[c][1,2]oxaborol-6-yl)oxy)acetate], for which the MIC was below 0.25 µg/mL in test [1] and 0.5 to 2 µg/mL (≈ 0.918 to 3.67 µM) in test [2] (setting [3]).

For the compound `C=C[C@]1(C)C[C@@H](OC(=O)COc2cc(CN)c3c(c2Cl)B(O)OC3)[C@]2(C)[C@H](C)CC[C@]3(CCC(=O)[C@H]32)[C@@H](C)[C@@H]1O` [Compound 8, (3aR,4R,5R,7S,8S,9R,9aS,12R)-8-hydroxy-4,7,9,12-tetramethyl-3-oxo-7-vinyldecahydro-4,9a-propanocyclopenta[8]annulen-5-yl 2-((4-(aminomethyl)-7-chloro-1-hydroxy-1,3-dihydrobenzo[c][1,2]oxaborol-6-yl)oxy)acetate], the MIC was below 0.25 µg/mL in test [1] and 0.5 to 2 µg/mL (≈ 0.871 to 3.48 µM) in test [2] (setting [3]).

With `C=C[C@]1(C)C[C@@H](OC(=O)COc2ccc3c(c2C)B(O)OC3)[C@]2(C)[C@H](C)CC[C@]3(CCC(=O)[C@H]32)[C@@H](C)[C@@H]1O` [Compound 9, (3aR,4R,5R,7S,8S,9R,9aS,12R)-8-hydroxy-4,7,9,12-tetramethyl-3-oxo-7-vinyldecahydro-4,9a-propanocyclopenta[8]annulen-5-yl2-((1-hydroxy-7-methyl-1,3-dihydrobenzo[c][1,2]oxaborol-6-yl)oxy)acetate], the results for the MIC in test [1] and in test [2] (setting [3]) were below 0.25 µg/mL and 0.5 to 2 µg/mL (≈ 0.953 to 3.81 µM), respectively.

For the compound `C=C[C@]1(C)C[C@@H](OC(=O)COc2cc3c(cc2C)COB3O)[C@]2(C)[C@H](C)CC[C@]3(CCC(=O)[C@H]32)[C@@H](C)[C@@H]1O` [Compound 10, (3aR,4R,5R,7S,8S,9R,9aS,12R)-8-hydroxy-4,7,9,12-tetramethyl-3-oxo-7-vinyldecahydro-4,9a-propanocyclopenta[8]annulen-5-yl 2-((1-hydroxy-5-methyl-1,3-dihydrobenzo[c][1,2]oxaborol-6-yl)oxy)acetate], the MIC in test [1] (setting [4]) and in test [2] (setting [5]) was below 0.25 µg/mL in each case.

For the compound `C=C[C@]1(C)C[C@@H](OC(=O)COc2cc(C)c3c(c2)B(O)OC3)[C@]2(C)[C@H](C)CC[C@]3(CCC(=O)[C@H]32)[C@@H](C)[C@@H]1O` [Compound 11, (3aR,4R,5R,7S,8S,9R,9aS,12R)-8-hydroxy-4,7,9,12-tetramethyl-3-oxo-7-vinyldecahydro-4,9a-propanocyclopenta[8]annulen-5-yl 2-((1-hydroxy-4-methyl-1,3-dihydrobenzo[c][1,2]oxaborol-6-yl)oxy)acetate], the MIC in test [1] and in test [2] (setting [3]) was below 0.25 µg/mL throughout.

On to `C=C[C@]1(C)C[C@@H](OC(=O)COc2cc(CN)c3c(c2)B(O)OC3)[C@]2(C)[C@H](C)CC[C@]3(CCC(=O)[C@H]32)[C@@H](C)[C@@H]1O.Cl` [Compound 12, (3aR,4R,5R,7S,8S,9R,9aS,12R)-8-hydroxy-4,7,9,12-tetramethyl-3-oxo-7-vinyldecahydro-4,9a-propanocyclopenta[8]annulen-5-yl 2-((4-(aminomethyl)-1-hydroxy-1,3-dihydrobenzo[c][1,2]oxaborol-6-yl)oxy)acetate Hydrochloride], for which the MIC in test [1] (setting [4]) and in test [2] (setting [5]) was below 0.25 µg/mL throughout.

On to `C=C[C@]1(C)C[C@@H](OC(=O)COc2ccc3c(c2OC)B(O)OC3)[C@]2(C)[C@H](C)CC[C@]3(CCC(=O)[C@H]32)[C@@H](C)[C@@H]1O` [Compound 14, (3aR,4R,5R,7S,8S,9R,9aS,12R)-8-hydroxy-4,7,9,12-tetramethyl-3-oxo-7-vinyldecahydro-4,9a-propanocyclopenta[8]annulen-5-yl2-((1-hydroxy-7-methoxy-1,3-dihydrobenzo[c][1,2]oxaborol-6-yl)oxy)acetate], for which the MIC was below 0.25 µg/mL in test [1] and 0.5 to 2 µg/mL (≈ 0.925 to 3.7 µM) in test [2] (setting [3]).

`C=C[C@]1(C)C[C@@H](OC(=O)COc2cc3c(cc2OC)COB3O)[C@]2(C)[C@H](C)CC[C@]3(CCC(=O)[C@H]32)[C@@H](C)[C@@H]1O` [Compound 15, (3aR,4R,5R,7S,8S,9R,9aS,12R)-8-hydroxy-4,7,9,12-tetramethyl-3-oxo-7-vinyldecahydro-4,9a-propanocyclopenta[8]annulen-5-yl 2-((1-hydroxy-5-methoxy-1,3-dihydrobenzo[c][1,2]oxaborol-6-yl)oxy)acetate]: the MIC in test [1] (setting [4]) and in test [2] (setting [5]) was below 0.25 µg/mL throughout.

As for `C=C[C@]1(C)C[C@@H](OC(=O)COc2ccc3c(c2C#N)B(O)OC3)[C@]2(C)[C@H](C)CC[C@]3(CCC(=O)[C@H]32)[C@@H](C)[C@@H]1O` [Compound 16, (3aR,4R,5R,7S,8S,9R,9aS,12R)-8-hydroxy-4,7,9,12-tetramethyl-3-oxo-7-vinyldecahydro-4,9a-propanocyclopenta[8]annulen-5-yl 2-((7-cyano-1-hydroxy-1,3-dihydrobenzo[c][1,2]oxaborol-6-yl)oxy)acetate], in test [1] (setting [4]), the MIC is below 0.25 µg/mL.

For the compound `C=C[C@]1(C)C[C@@H](OC(=O)COc2cc(CN)c3c(c2)B(O)OC3)[C@]2(C)[C@H](C)CC[C@]3(C[C@H](O)C(=O)[C@H]32)[C@@H](C)[C@@H]1O` [Compound 42, (2S,3aR,4R,5R,7S,8S,9R,9aS,12R)-2,8-dihydroxy-4,7,9,12-tetramethyl-3-oxo-7-vinyldecahydro-4,9a-propanocyclopenta[8]annulen-5-yl 2-((4-(aminomethyl)-1-hydroxy-1,3-dihydrobenzo[c][1,2]oxaborol-6-yl)oxy)acetate], in test [1] (setting [4]), the MIC was in the range of 4 to 32 µg/mL (≈ 7.2 to 57.6 µM).

In general, MIC refers to the smallest concentration in the dilution series that meets the test's criterion for growth inhibition.
